One compound from paper PMC11930087, “Mobility of four structural regions drives isoform-specific properties of photoenzyme LPOR in plants” (The Journal of Biological Chemistry, 2025) can be followed below.

The structures appear in SMILES notation.

Assay in all cases: […] K Pchlide fluorescence in darkness, F648/F635 ratio vs NADPH, hyperbolic fit
What all share (type): binding
What all share (conditions): lipid-free; 5 μM Pchlide, 15 μM LPOR, pH 7.1, room-temperature dark incubation; apparent parameter, exact value in supplement; read-out: KM^D

For one assay, the target named is T1, AtPORA (Arabidopsis thaliana, UniProt Q42536).
T1 construct: gene PORA
T1 sequence (Q42536 70-405): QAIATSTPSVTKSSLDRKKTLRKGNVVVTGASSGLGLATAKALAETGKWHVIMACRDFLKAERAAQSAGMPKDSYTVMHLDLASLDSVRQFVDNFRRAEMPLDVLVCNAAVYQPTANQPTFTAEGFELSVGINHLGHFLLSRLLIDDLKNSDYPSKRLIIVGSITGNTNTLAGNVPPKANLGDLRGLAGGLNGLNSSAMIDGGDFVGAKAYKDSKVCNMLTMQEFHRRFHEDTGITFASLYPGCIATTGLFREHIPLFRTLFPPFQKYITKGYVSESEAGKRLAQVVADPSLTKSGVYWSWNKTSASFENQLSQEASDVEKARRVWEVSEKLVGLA

Another assay addresses T2, SlPOR1 (Solanum lycopersicum, UniProt A0A3Q7HEX8).
T2 construct: gene POR2; transit peptide removed; pET15b
T2 sequence (A0A3Q7HEX8 65-399): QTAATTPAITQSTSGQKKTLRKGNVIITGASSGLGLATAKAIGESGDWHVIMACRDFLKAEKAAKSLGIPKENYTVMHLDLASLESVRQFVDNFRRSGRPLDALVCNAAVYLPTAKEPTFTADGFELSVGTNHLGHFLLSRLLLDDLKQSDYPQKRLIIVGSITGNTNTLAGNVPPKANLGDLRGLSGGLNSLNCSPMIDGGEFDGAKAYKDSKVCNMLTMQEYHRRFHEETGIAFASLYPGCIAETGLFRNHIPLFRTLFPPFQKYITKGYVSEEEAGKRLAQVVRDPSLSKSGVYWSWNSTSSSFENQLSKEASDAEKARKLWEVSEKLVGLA

The target in another assay is T3, SlPOR2 (Solanum lycopersicum, UniProt A0A3Q7IBI0).
T3 construct: gene POR; transit peptide removed; pET15b
T3 sequence (A0A3Q7IBI0 62-395): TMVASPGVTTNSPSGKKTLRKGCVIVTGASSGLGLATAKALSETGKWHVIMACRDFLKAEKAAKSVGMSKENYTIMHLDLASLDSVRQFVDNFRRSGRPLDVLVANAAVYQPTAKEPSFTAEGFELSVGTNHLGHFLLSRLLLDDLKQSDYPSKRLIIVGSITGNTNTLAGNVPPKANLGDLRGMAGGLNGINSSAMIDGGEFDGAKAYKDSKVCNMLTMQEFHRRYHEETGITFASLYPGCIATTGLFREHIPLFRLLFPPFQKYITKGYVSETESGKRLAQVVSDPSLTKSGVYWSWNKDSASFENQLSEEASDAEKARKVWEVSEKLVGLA

Another assay concerns the target T4, HaPOR2 (Helianthus annuus, UniProt A0A251TWA4).
T4 construct: gene PORA; transit peptide removed; pET15b
T4 sequence (A0A251TWA4 53-387): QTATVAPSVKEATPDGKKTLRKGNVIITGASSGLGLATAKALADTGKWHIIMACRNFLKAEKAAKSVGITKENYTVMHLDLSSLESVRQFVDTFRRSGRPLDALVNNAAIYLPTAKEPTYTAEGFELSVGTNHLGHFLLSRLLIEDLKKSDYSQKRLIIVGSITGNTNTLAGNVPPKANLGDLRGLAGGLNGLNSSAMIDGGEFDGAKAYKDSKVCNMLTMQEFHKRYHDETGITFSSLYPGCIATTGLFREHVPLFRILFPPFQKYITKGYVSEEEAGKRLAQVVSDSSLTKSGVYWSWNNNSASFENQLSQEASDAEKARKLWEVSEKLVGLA

Turning to `NC(=O)C1=CN([C@@H]2O[C@H](COP(=O)(O)OP(=O)(O)OC[C@H]3O[C@@H](n4cnc5c(N)ncnc54)[C@H](OP(=O)(O)O)[C@@H]3O)[C@@H](O)[C@H]2O)C=CC1` [NADPH], the Kd was over 100 µM at AtPORA, under 10 µM at SlPOR1, under 10 µM on SlPOR2 and under 10 µM at HaPOR2.
